Measured values from patent US20140350273A1, “PEDIATRIC USES OF CABAZITAXEL” (AVENTIS PHARMA S.A., priority 2012, published 2014).
Read-outs that look alike come from different tables or passages of the source.

Tested on: human Ewing's sarcoma DM101
Type: in vivo
Settings: for Tumor Volume Data (Day 11) Median / ΔT/ΔC %: day 11; for MTTE / T-C: volume endpoint 2000 mm^3; for tumor volume changes from baseline, Median +/− MAD: nude mice bearing DM101 Ewing's sarcoma
Method: The resultant solution contains 10 mg/mL of cabazitaxel. Stock solution of cabazitaxel was then diluted in 0.9% sodium chloride.
This efficacy may be quantified, for example, as changes in tumor volume for each treated (T) and control (C) group, which are calculated for each animal and each day by subtracting the tumor volume on the day of first treatment (staging day) from the tumor volume on the specified observation day. This allows calculating the tumor growth inhibition: ΔT/ΔC=(median delta T/median delta C)×100. Individual tumor volume changes from baseline are thereafter analyzed by a non-parametric two-way ANOVA-TYPE (with factors: group and repeated days) followed by a post-hoc contrasts analysis, with Bonferroni-Holm adjustment for multiplicity, comparing all treated groups to the control group. […] A probability less than 5% (p<0.05) was considered as significant.
Based on the National Cancer Institute (NCl) standards, a ΔT/ΔC≦40% is the minimal level required to declare activity.
This efficacy may also be quantified by the number of tumor regressions observed after therapy. Individual mice reporting a tumor volume ≦50% of the Day 0 measurement for two consecutive measurements over a seven day period were considered partial responders (PR). Individual mice lacking palpable tumors (<4×4 mm^2 for two consecutive measurements over a seven day period) were classified as complete responders (CR); a CR that persisted until study completion was considered a tumor-free survivor (TFS).
Efficacy could also be determined at study completion, using tumor growth delay (T-C) in days, which is calculated using the median time to endpoint (MTTE) value for each treatment (T) group versus control (C). A Log Rank multiple comparison test with Bonferroni-Holm adjustment for multiplicity was applied on individual TTE to compare the treated groups to the control group.
The animals subjected to the experiment are subcutaneously grafted unilaterally with approximately 30 mg of a tumor fragment from low passage pediatric patient-derived tumor xenografts. The animals are implanted with a human patient-derived pediatric tumor xenografted in immuno-compromised mice (Harlan; nu/nu). Several days post tumor implantation, mice are randomized according to their tumor burden to the different groups of treatments and controls. The agents are dosed intravenously at 5.8, 9.3, 15 or 24.2 mg/kg every 4 days for a total of 3 doses (q4d×3) to mice bearing a tumor burden at start of therapy (day 0) ranged from 125 to 250 mm^3.
Beginning Day 0, animals were observed daily and weighed twice weekly using a digital scale; data including individual and mean gram weights (Mean We±SD), mean percent weight change versus Day 0 were recorded for each group. Animal deaths were recorded daily and designated as drug-related (D), technical (T), tumor related (B), or unknown (U) based on weight loss and gross observation; single agent or combination groups reporting a mean >20% for a period of 7 days and/or >10% mortality were considered above the maximum tolerated dose (MTD) for that treatment on the evaluated regimen.
The selected tumor model, DM101, was a low passage patient-derived tumor xenograft derived from an Ewing's sarcoma taken from the bone of a patient.
The following end points were used: • Toxicity was declared at dosages inducing ≧20% body weight loss or ≧10% drug death; • Antitumor efficacy was determined by calculating the ΔT/ΔC value in percent on day 11 post treatment initiation, according to the above mentioned formula; • Individual tumor volume changes from baseline were analyzed by a non-parametric two-way ANOVA-TYPE (with factors: group and repeated day from 4 to 14) followed by a post-hoc contrasts analysis, with Bonferroni-Holm adjustment for multiplicity, comparing all treated groups to the control group on day 11. […] The volume endpoint for T-C calculations was chosen to be 2000 mm^3.

SMILES: CO[C@H]1C(=O)[C@]2(C)[C@@H](OC)C[C@H]3OC[C@@]3(OC(C)=O)[C@H]2[C@H](OC(=O)c2ccccc2)[C@]2(O)C[C@H](OC(=O)[C@H](O)[C@@H](NC(=O)OC(C)(C)C)c3ccccc3)C(C)=C1C2(C)C [Cabazitaxel, 4α-acetoxy-2α-benzoyloxy-5β,20-epoxy-1β-hydroxy-7β,10β-dimethoxy-9-oxo-11-taxen-13α-yl (2R,3S)-3-tert-butoxycarbonyl-amino-2-hydroxy-3-phenylpropionate]
- #CR (5.8 mg/kg i.v./q4d × 3): 0/0/0
- #PR (5.8 mg/kg i.v./q4d × 3): 0/0/0
- #TFS (5.8 mg/kg i.v./q4d × 3): 0/0/0
- Drug Deaths Total (5.8 mg/kg i.v./q4d × 3): 0
- Tumor Volume Data (Day 11) Median (5.8 mg/kg i.v./q4d × 3): 204 mm^3
- ΔT/ΔC % (5.8 mg/kg i.v./q4d × 3): 8.9%
- MTTE (5.8 mg/kg i.v./q4d × 3): 34.8 days
- T-C (5.8 mg/kg i.v./q4d × 3): 17.9 days
- tumor volume changes from baseline, Median +/− MAD (5.8 mg/kg, DAY 4): 0 +/− 0 (n = 9)
- tumor volume changes from baseline, Median +/− MAD (5.8 mg/kg, DAY 7): 34 +/− 34
- tumor volume changes from baseline, Median +/− MAD (5.8 mg/kg, DAY 11): 73 +/− 73
- tumor volume changes from baseline, Median +/− MAD (5.8 mg/kg, DAY 14): 155 +/− 136
- tumor volume changes from baseline, Median +/− MAD (5.8 mg/kg, DAY 17): 306 +/− 152
- tumor volume changes from baseline, Median +/− MAD (5.8 mg/kg, DAY 20): 489 +/− 199
- tumor volume changes from baseline, Median +/− MAD (5.8 mg/kg, DAY 25): 696.5
- tumor volume changes from baseline, Median +/− MAD (5.8 mg/kg, DAY 28): 1097 +/− 117
- tumor volume changes from baseline, Median +/− MAD (5.8 mg/kg, DAY 32): 1396
- #CR (9.3 mg/kg i.v./q4d × 3): 1/1/1
- #PR (9.3 mg/kg i.v./q4d × 3): 1/1/1
- #TFS (9.3 mg/kg i.v./q4d × 3): 1/1/1
- Drug Deaths Total (9.3 mg/kg i.v./q4d × 3): 0
- Weight Nadir % (9.3 mg/kg i.v./q4d × 3): −2%
- Weight Nadir Day (9.3 mg/kg i.v./q4d × 3): 7
- Tumor Volume Data (Day 11) Median (9.3 mg/kg i.v./q4d × 3): 255 mm^3
- ΔT/ΔC % (9.3 mg/kg i.v./q4d × 3): 9.4%
- MTTE (9.3 mg/kg i.v./q4d × 3): 23.9 days
- T-C (9.3 mg/kg i.v./q4d × 3): 7 days
- tumor volume changes from baseline, Median +/− MAD (9.3 mg/kg, DAY 4): 0 +/− 33
- tumor volume changes from baseline, Median +/− MAD (9.3 mg/kg, DAY 7): 13 +/− 41
- tumor volume changes from baseline, Median +/− MAD (9.3 mg/kg, DAY 11): 77 +/− 118
- tumor volume changes from baseline, Median +/− MAD (9.3 mg/kg, DAY 14): 188 +/− 241
- tumor volume changes from baseline, Median +/− MAD (9.3 mg/kg, DAY 17): 498 +/− 485
- tumor volume changes from baseline, Median +/− MAD (9.3 mg/kg, DAY 20): 766 +/− 713
- tumor volume changes from baseline, Median +/− MAD (9.3 mg/kg, DAY 25): 1095
- tumor volume changes from baseline, Median +/− MAD (9.3 mg/kg, DAY 28): 182.5 +/− 248
- tumor volume changes from baseline, Median +/− MAD (9.3 mg/kg, DAY 32): 385 +/− 414
- #CR (15 mg/kg i.v./q4d × 3): 9
- #PR (15 mg/kg i.v./q4d × 3): 9
- #TFS (15 mg/kg i.v./q4d × 3): 7
- Drug Deaths Total (15 mg/kg i.v./q4d × 3): 0
- Weight Nadir % (15 mg/kg i.v./q4d × 3): −3%
- Weight Nadir Day (15 mg/kg i.v./q4d × 3): 7
- Tumor Volume Data (Day 11) Median (15 mg/kg i.v./q4d × 3): 0 mm^3
- ΔT/ΔC % (15 mg/kg i.v./q4d × 3): −16%
- MTTE (15 mg/kg i.v./q4d × 3): >61 days
- T-C (15 mg/kg i.v./q4d × 3): >44.1 days
- CR (15 mg/kg q4d×3 IV): 9/9
- TFS (15 mg/kg q4d×3 IV): 7/9
- tumor volume changes from baseline, Median +/− MAD (15 mg/kg, DAY 4): 0 +/− 0 (n = 9)
- tumor volume changes from baseline, Median +/− MAD (15 mg/kg, DAY 7): −113 +/− 32
- tumor volume changes from baseline, Median +/− MAD (15 mg/kg, DAY 11): −131 +/− 47
- tumor volume changes from baseline, Median +/− MAD (15 mg/kg, DAY 14): −131 +/− 47
- tumor volume changes from baseline, Median +/− MAD (15 mg/kg, DAY 17): −131 +/− 47
- tumor volume changes from baseline, Median +/− MAD (15 mg/kg, DAY 20): −131 +/− 47
- tumor volume changes from baseline, Median +/− MAD (15 mg/kg, DAY 25): −131 +/− 47
- tumor volume changes from baseline, Median +/− MAD (15 mg/kg, DAY 28): −131 +/− 47
- tumor volume changes from baseline, Median +/− MAD (15 mg/kg, DAY 32): −131 +/− 40
- #CR (24.2 mg/kg i.v./q4d × 3): 9
- #PR (24.2 mg/kg i.v./q4d × 3): 9
- #TFS (24.2 mg/kg i.v./q4d × 3): 8
- Drug Deaths Total (24.2 mg/kg i.v./q4d × 3): 0
- Weight Nadir % (24.2 mg/kg i.v./q4d × 3): −5%
- Weight Nadir Day (24.2 mg/kg i.v./q4d × 3): 11
- Tumor Volume Data (Day 11) Median (24.2 mg/kg i.v./q4d × 3): 0 mm^3
- ΔT/ΔC % (24.2 mg/kg i.v./q4d × 3): −18.3%
- MTTE (24.2 mg/kg i.v./q4d × 3): >61 days
- T-C (24.2 mg/kg i.v./q4d × 3): >44.1 days
- CR (24.2 mg/kg q4d×3 IV): 9/9
- TFS (24.2 mg/kg q4d×3 IV): 8/9
- tumor volume changes from baseline, Median +/− MAD (24.2 mg/kg, DAY 4): −19 +/− 19
- tumor volume changes from baseline, Median +/− MAD (24.2 mg/kg, DAY 7): −150 +/− 52
- tumor volume changes from baseline, Median +/− MAD (24.2 mg/kg, DAY 11): −150 +/− 38
- tumor volume changes from baseline, Median +/− MAD (24.2 mg/kg, DAY 14): −150 +/− 38
- tumor volume changes from baseline, Median +/− MAD (24.2 mg/kg, DAY 17): −150 +/− 38
- tumor volume changes from baseline, Median +/− MAD (24.2 mg/kg, DAY 20): −150 +/− 38
- tumor volume changes from baseline, Median +/− MAD (24.2 mg/kg, DAY 25): −150 +/− 38
- tumor volume changes from baseline, Median +/− MAD (24.2 mg/kg, DAY 28): −150 +/− 38
- tumor volume changes from baseline, Median +/− MAD (24.2 mg/kg, DAY 32): −150 +/− 38
- antitumor activity compared with docetaxel (conclusion of example 6, 15 or 24.2 mg/kg, same or equi-toxic dose): significantly more active than docetaxel
